These are literature values, as cited in US20060067952A1, “Low oil emulsion compositions for delivering taxoids and other insoluble drugs” (SD Pharmaceuticals, Inc., priority 2004, published 2006).

Read-outs that look alike come from different tables or passages of the source.

For this series the following is noted: 25° C.

For the compound `CC(=O)Oc1ccccc1C(=O)O` [aspirin], the “Volume of solvent required to dissolve 1 gram of the drug” value was 300 mL (H2O) and 5 mL (ethanol).
